Experimental data from ChEMBL document CHEMBL1201862, “PubChem BioAssay data set” (2004).
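Step 1: Grow cells in 96-well plates. Step 2: Expose to compound for 48 hours at 5 concentrations. Step 3: Interpolate endpoints linearly; if unreached, use highest concentration. GI50: concentration for 50% inhibition of growth.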 Activity calls are given as the source filed them. Cut-off read from the data, not from the text of the source: active = GI50 up to about 1.1 µM and inactive = higher.

Tests used:
Experiment in all cases: NCI anticancer screen, dose series, 48 h
A498 = test system: A498
CAKI-1 = test system: CAKI-1
DU-145 = test system: DU-145
HCT-15 = test system: HCT-15
HOP-92 = test system: HOP-92
K562 = test system: K562
KM12 = test system: KM12
M14 = test system: M14
NCI-H226 = test system: NCI-H226
NCI-H460 = test system: NCI-H460
NCI-H522 = test system: NCI-H522
NCI/ADR-RES = test system: NCI/ADR-RES
OVCAR-5 = test system: OVCAR-5
SF-295 = test system: SF-295
SK-MEL-5 = test system: SK-MEL-5
UACC-257 = test system: UACC-257
UACC-62 = test system: UACC-62
UO-31 = test system: UO-31
MOLT-4 = test system: MOLT-4
HL-60 = test system: HL-60

Row | Compound | GI50 (A498) | GI50 (CAKI-1) | GI50 (DU-145) | GI50 (HCT-15) | GI50 (HOP-92) | GI50 (K562) | GI50 (KM12) | GI50 (M14) | GI50 (NCI-H226) | GI50 (NCI-H460) | GI50 (NCI-H522) | GI50 (NCI/ADR-RES) | GI50 (OVCAR-5) | GI50 (SF-295) | GI50 (SK-MEL-5) | GI50 (UACC-257) | GI50 (UACC-62) | GI50 (UO-31) | GI50 (MOLT-4) | GI50 (HL-60)
1 | S=C(Nc1ccc2cn[nH]c2c1)Nc1ccc2cn[nH]c2c1 | 46 µM (inactive) | > 100 µM (inactive) | > 100 µM (inactive) | 63.5 µM | > 100 µM (inactive) | 61.7 µM (inactive) | 53.7 µM (inactive) | > 100 µM (inactive) | 44.1 µM (inactive) | 43 µM (inactive) | 34.1 µM (inactive) | > 100 µM (inactive) | 95.5 µM (inactive) | 87.3 µM (inactive) | 45.1 µM (inactive) | 96.6 µM (inactive) | 48.5 µM (inactive) | > 100 µM (inactive) |  | 
2 | O=C(O)CCN1C(=S)CSC1=S | > 100 µM (inactive) | > 100 µM (inactive) | > 100 µM (inactive) | > 100 µM | > 100 µM (inactive) | 78 µM (inactive) | > 100 µM (inactive) | > 100 µM (inactive) | > 100 µM (inactive) | 88.1 µM (inactive) | 67.8 µM (inactive) | > 100 µM (inactive) | > 100 µM (inactive) | > 100 µM (inactive) | > 100 µM (inactive) | > 100 µM (inactive) | > 100 µM (inactive) |  | 42 µM (inactive) | 
3 | COc1cccc(C2c3cc4c(cc3OC(N3CCCCC3)C2C)OCO4)c1O (stereo unspecified) |  | 5.48 µM (inactive) | 7.53 µM (inactive) | 4.21 µM | 8.18 µM (inactive) | 2.23 µM (inactive) | 4.47 µM (inactive) | 4.2 µM (inactive) | 6.55 µM (inactive) | 4.13 µM (inactive) | 2.74 µM (inactive) | 5.12 µM (inactive) | 17.7 µM (inactive) | 4.26 µM (inactive) | 3.62 µM (inactive) | 8.04 µM (inactive) | 5.92 µM (inactive) | 12.4 µM (inactive) | 3.96 µM (inactive) | 2.54 µM (inactive)
4 | CCn1c(=O)c2c3cc(OC(C)=O)ccc3oc2c2ccc(OC(C)=O)cc21 | 24.8 µM (inactive) | 40 µM (inactive) | 36.1 µM (inactive) | 39.1 µM | 23.4 µM (inactive) | 33.8 µM (inactive) | 40.1 µM (inactive) | 45.9 µM (inactive) | 34.4 µM (inactive) | 21.8 µM (inactive) | 39.1 µM (inactive) | 36.9 µM (inactive) |  | 19.8 µM (inactive) | 33 µM (inactive) | 55.1 µM (inactive) | 21.7 µM (inactive) | 26.6 µM (inactive) | 23.6 µM (inactive) | 
5 | CN(NC(=O)/C(=C/c1ccc(Cl)cc1)NC(=O)c1ccccc1)c1cn[nH]c(=O)c1Cl |  | > 100 µM (inactive) | > 100 µM (inactive) | > 100 µM | > 100 µM (inactive) | > 100 µM (inactive) | 55.1 µM (inactive) | > 100 µM (inactive) | 31.1 µM (inactive) | > 100 µM (inactive) | 17.5 µM (inactive) | 34 µM (inactive) | > 100 µM (inactive) | 46.6 µM (inactive) | 73.5 µM (inactive) | > 100 µM (inactive) | 97.1 µM (inactive) | > 100 µM (inactive) | 19.9 µM (inactive) | 12.7 µM (inactive)
6 | O=S(=O)(N/C(=N\O)Nc1ccc(Cl)cc1)c1cc2ccccc2o1 |  | 10.6 µM (inactive) | 47.2 µM (inactive) | 14.7 µM | 13.3 µM (inactive) | 11.1 µM (inactive) | 13.2 µM (inactive) | 21.2 µM (inactive) | 33.4 µM (inactive) | 38.7 µM (inactive) | 12.2 µM (inactive) | 19.8 µM (inactive) | 23.6 µM (inactive) | 14.9 µM (inactive) | 15.3 µM (inactive) | 19.5 µM (inactive) | 10.9 µM (inactive) | 46.7 µM (inactive) | 22.6 µM (inactive) | 15.3 µM (inactive)
